# Active and inactive are the calls of the source. The rule behind the calls is not given here.
# What was measured:
# [1] = system: Hepatocyte; test: Inhibition of glucose production in rat primary hepatocytes at 10 uM; assay type: functional, cell-based
# [2] = biological target: T1, ATP-dependent 6-phosphofructokinase, muscle type (Homo sapiens, UniProt P08237); test: Activation of phosphofructokinase AMP binding site
# T1 sequence (P08237 whole entry): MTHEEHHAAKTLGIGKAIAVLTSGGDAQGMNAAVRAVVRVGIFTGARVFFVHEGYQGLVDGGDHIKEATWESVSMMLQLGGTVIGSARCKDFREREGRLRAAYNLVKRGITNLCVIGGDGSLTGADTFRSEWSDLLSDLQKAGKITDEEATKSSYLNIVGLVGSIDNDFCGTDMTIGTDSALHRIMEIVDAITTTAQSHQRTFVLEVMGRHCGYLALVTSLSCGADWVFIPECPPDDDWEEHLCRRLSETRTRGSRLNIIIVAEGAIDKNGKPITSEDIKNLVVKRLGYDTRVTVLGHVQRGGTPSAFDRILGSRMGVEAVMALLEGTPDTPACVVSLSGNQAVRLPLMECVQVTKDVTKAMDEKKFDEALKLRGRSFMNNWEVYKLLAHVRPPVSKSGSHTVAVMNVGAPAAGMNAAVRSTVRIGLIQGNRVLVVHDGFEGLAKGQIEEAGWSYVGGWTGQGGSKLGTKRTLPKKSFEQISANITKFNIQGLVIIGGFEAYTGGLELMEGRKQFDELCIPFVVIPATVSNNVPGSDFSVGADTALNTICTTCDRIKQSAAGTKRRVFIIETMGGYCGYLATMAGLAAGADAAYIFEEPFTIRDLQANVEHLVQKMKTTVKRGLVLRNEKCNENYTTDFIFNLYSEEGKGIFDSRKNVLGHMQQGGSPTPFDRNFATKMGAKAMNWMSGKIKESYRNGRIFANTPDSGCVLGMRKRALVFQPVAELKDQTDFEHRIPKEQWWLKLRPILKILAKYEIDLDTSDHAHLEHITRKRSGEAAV
# [3] = Inhibition of adenylate kinase AMP binding site
# [4] = Activation of glycogen phosphorylase AMP binding site
# [5] = Oral bioavailability in 18 hrs fasted normal Sprague-Dawley rat up to 100 mg/kg by urinary excretion assay; assay type: ADME, organism-based; conditions: urine
# [6] = system: Hepatocyte; test: Inhibition of glucose production in rat primary hepatocytes at 100 uM; assay type: functional, cell-based
# [7] = system: Rattus norvegicus; test: Reduction of blood glucose level in 18 hrs fasted normal Sprague-Dawley rat at 10 mg/kg, iv after 1 hr interval; assay type: functional; design: scale not given: the % may be the effect or the level left
# [8] = system: Rattus norvegicus; test: Reduction of blood glucose level in 5 hrs fasted ZDF rat at 10 mg/kg, iv administered every 1 hr for 6 hrs; assay type: functional, organism-based; design: dose 10 mg/kg
# [9] = biological target: Adenosine kinase (Homo sapiens, UniProt P55263); test: Inhibition of adenosine kinase AMP binding site
# Sequence of Adenosine kinase (P55263 whole entry): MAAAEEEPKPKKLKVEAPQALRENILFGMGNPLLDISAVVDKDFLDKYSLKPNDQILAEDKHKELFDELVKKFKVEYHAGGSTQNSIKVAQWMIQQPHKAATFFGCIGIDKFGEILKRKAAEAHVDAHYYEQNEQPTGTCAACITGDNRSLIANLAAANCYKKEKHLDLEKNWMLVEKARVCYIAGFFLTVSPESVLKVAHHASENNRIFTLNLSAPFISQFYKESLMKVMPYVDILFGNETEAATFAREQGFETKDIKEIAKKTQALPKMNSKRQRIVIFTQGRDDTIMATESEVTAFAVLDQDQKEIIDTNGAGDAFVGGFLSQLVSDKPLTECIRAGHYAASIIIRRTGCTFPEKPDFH
smiles,measurement,setting,value
CCc1cc(F)c(N)c2nc(-c3ccc(P(=O)(O)O)o3)n(CC(C)C)c12,Activity,[1],Active
same,EC50,[2],> 100 µM
same,IC50,[3],> 100 µM
same,EC50,[4],> 100 µM
same,bioavailability,[5],1%
same,Activity,[6],Active
same,Activity,[7],64%
same,Activity,[8],Active
same,IC50,[9],> 100 µM

# From ChEMBL document CHEMBL1156817, “Fructose-1,6-bisphosphatase Inhibitors. 2. Design, synthesis, and structure-activity relationship of a series of phosphonic acid containing benzimidazoles that function as 5'-adenosinemonophosphate (AMP) mimics” (J Med Chem, 2010)
